According to patent US20160159816A1, “SUBSTITUTED THIENOPYRIMIDINES AND PHARMACEUTICAL USE THEREOF” (BAYER PHARMA AKTIENGESELLSCHAFT, priority 2013, published 2016):
pIC50: −log10 of the molar value.

Molecular target: T1, human full-length MKNK1 (Homo sapiens, UniProt Q9BUB5, T385D)
T1 construct: GST (N); purchased Carna Biosciences 02-145; host or cells: insect cells, baculovirus expression system
Assay: MKNK1 kinase high ATP assay (TR-FRET)
Type: biochemical
Details: high ATP (2 mM), after preincubation with MKNK1; compounds of the present invention (Table 1a)
Summary of the method: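 GST-tagged full-length human MKNK1 pre-incubated 15 min with compound, then reacted 30 min at 22 °C with 2 mM ATP and 0.06 μM biotinylated peptide substrate (pH 7.5). Phospho-peptide detected by TR-FRET (665/620 nm ratio); normalised to no-inhibitor and no-enzyme controls.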

T1 sequence (Q9BUB5 1-424 isoform Q9BUB5-2 T344D): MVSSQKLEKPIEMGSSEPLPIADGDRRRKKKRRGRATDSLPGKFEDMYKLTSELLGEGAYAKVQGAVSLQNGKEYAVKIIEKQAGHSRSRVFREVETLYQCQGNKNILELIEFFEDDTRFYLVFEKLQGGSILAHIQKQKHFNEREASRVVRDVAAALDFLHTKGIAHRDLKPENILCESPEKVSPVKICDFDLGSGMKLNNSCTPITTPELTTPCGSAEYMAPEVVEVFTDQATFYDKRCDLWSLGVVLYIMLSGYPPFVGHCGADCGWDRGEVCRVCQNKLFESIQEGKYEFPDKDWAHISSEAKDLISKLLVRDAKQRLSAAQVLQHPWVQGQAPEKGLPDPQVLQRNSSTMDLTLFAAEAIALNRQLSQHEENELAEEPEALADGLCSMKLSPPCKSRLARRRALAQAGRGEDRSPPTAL

pIC50: 7.69
SMILES: CC[C@]1(C(=O)N2CCOC[C@H]2C)CCc2c(sc3ncnc(Nc4cc5cn[nH]c5cc4OC)c23)C1 [Example 75, {(7S)-7-Ethyl-4-[(6-methoxy-1H-indazol-5-yl)amino]-5,6,7,8-tetrahydro[1]benzothieno[2,3-d]pyrimidin-7-yl}[(3R)-3-methylmorpholin-4-yl]methanone]
